Results taken from US10065956B2, “Ethynyl derivatives” (Hoffmann-La Roche Inc., priority 2015, dated 2018).

Target: T1, human mGlu4 receptor (Homo sapiens, UniProt Q14833)
T1 construct: expressed in transfected cells; host or cells: monoclonal HEK-293 cell line, stably transfected
Test: Ca2+ mobilization in vitro assay on recombinant human mGlu4 expressed in HEK293 cells (PAM, L-AP4 at EC20)
Format: cell-based
Settings: for Emax: HEK293, maximal response in % of the maximal stimulatory effect obtained with saturating concentrations of L-AP4, read-out: Eff. (%); for EC50: HEK293 cells expressing human mGlu4, L-AP4 added at EC20
From the text: FIG. 1: Illustration of the experimental outline for mGlu4 PAM Ca2+ mobilization screening assay and the determination of EC50 and % Emax values.
Determination of EC50 Values Using a Ca2+ Mobilization In Vitro Assay on Recombinant Human mGlu4 Expressed in HEK293 Cells:
A monoclonal HEK-293 cell line stably transfected with a cDNA encoding for the human mGlu4 receptor was generated; for the work with mGlu4 Positive Allosteric Modulators (PAMs), a cell line with low receptor expression levels and low constitutive receptor activity was selected to allow the differentiation of agonistic versus PAM activity. Cells were cultured according to standard protocols (Freshney, 2000) in Dulbecco's Modified Eagle Medium with high glucose supplemented with 1 mM glutamine, 10% (vol/vol) heat-inactivated bovine calf serum, Penicillin/Streptomycin, 50 μg/ml hygromycin and 15 μg/ml blasticidin (all cell culture reagents and antibiotics from Invitrogen, Basel, Switzerland).
About 24 hrs before an experiment, 5×10^4 cells/well were seeded in poly-D-lysine coated, black/clear-bottomed 96-well plates. The cells were loaded with 2.5 μM Fluo-4AM in loading buffer (1×HBSS, 20 mM HEPES) for 1 hr at 37° C. and washed five times with loading buffer. The cells were transferred into a Functional Drug Screening System 7000 (Hamamatsu, Paris, France), and 11 half logarithmic serial dilutions of test compound at 37° C. were added and the cells were incubated for 10-30 min. with on-line recording of fluorescence. Following this pre-incubation step, the agonist (2S)-2-amino-4-phosphonobutanoic acid (L-AP4) was added to the cells at a concentration corresponding to EC20 with on-line recording of fluorescence; in order to account for day-to-day variations in the responsiveness of cells, the EC20 of L-AP4 was determined immediately ahead of each experiment by recording of a full dose-response curve of L-AP4. Responses were measured as peak increase in fluorescence minus basal (i.e. fluorescence without addition of L-AP4), normalized to the maximal stimulatory effect obtained with saturating concentrations of L-AP4. Graphs were plotted with the % maximal stimulatory using XLfit, a curve fitting program that iteratively plots the data using Levenburg Marquardt algorithm. The single site competition analysis equation used was y=A+((B−A)/(1+((x/C)D))), where y is the % maximal stimulatory effect, A is the minimum y, B is the maximum y, C is the EC50, x is the log 10 of the concentration of the competing compound and D is the slope of the curve (the Hill Coefficient). From these curves the EC50 (drug concentration at which 50% of the maximal receptor activation was achieved), the Hill coefficient as well as the maximal response in % of the maximal stimulatory effect obtained with saturating concentrations of L-AP4 were calculated (see FIG. 1). […] A depression of the signal observed after addition of the EC20 concentration of L-AP4 was indicative of an inhibitory activity of the test compound.

T1 sequence (Q14833 33-912): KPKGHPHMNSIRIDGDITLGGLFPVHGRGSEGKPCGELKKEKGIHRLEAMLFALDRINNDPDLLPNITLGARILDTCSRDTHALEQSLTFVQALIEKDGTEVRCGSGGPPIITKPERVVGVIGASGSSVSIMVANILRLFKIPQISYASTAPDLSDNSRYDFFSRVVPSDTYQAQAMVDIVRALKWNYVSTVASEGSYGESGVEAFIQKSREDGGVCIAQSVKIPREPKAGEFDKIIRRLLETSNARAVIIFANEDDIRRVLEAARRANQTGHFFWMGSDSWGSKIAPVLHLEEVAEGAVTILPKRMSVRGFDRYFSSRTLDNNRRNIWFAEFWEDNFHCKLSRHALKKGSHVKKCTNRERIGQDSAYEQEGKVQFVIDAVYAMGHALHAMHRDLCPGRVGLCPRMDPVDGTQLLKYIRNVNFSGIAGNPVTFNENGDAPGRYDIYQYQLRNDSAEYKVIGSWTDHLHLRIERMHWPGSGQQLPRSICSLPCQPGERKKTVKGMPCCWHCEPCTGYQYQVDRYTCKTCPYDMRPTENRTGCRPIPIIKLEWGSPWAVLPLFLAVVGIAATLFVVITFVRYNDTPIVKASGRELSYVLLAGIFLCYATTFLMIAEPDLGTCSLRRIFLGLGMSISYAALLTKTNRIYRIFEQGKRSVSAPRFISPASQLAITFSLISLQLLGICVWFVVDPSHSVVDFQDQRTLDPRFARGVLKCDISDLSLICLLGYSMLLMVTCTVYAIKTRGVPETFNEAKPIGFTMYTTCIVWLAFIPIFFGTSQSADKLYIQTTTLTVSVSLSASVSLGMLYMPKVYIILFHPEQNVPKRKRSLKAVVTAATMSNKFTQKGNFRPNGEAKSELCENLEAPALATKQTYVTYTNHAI

| SMILES | Emax [%] | EC50 [nM] |
| --- | --- | --- |
| COCCn1cc([C@]2(C)CC(=O)N(c3c(F)cc(C#Cc4ccccc4)cc3F)C(=O)N2C)cn1 [Example 20, (6S)-3-[2,6-Difluoro-4-(2-phenylethynyl)phenyl]-6-[1-(2-methoxyethyl)pyrazol-4-yl]-1,6-dimethyl-hexahydropyrimidine-2,4-dione] | 137 | 54 |
| COCCCn1cc([C@]2(C)CC(=O)N(c3c(F)cc(C#Cc4ccccc4)cc3F)C(=O)N2C)cn1 [Example 21, (6S)-3-[2,6-Difluoro-4-(2-phenylethynyl)phenyl]-6-[1-(3-methoxypropyl)pyrazol-4-yl]-1,6-dimethyl-hexahydropyrimidine-2,4-dione] | 136 | 70 |
| CN1C(=O)N(c2c(F)cc(C#Cc3ccccc3)cc2F)C(=O)C[C@@]1(C)c1cnn(CCCO)c1 [Example 22, (6S)-3-[2,6-Difluoro-4-(2-phenylethynyl)phenyl]-6-[1-(3-hydroxypropyl)pyrazol-4-yl]-1,6-dimethyl-hexahydropyrimidine-2,4-dione] | 143 | 56 |
| CN1C(=O)N(c2c(F)cc(C#Cc3ccccc3)cc2F)C(=O)C[C@@]1(C)c1cnn(CCO)c1 [Example 23, (6S)-3-[2,6-Difluoro-4-(2-phenylethynyl)phenyl]-6-[1-(2-hydroxyethyl)pyrazol-4-yl]-1,6-dimethyl-hexahydropyrimidine-2,4-dione] | 147 | 108 |
| CN1C(=O)N(c2c(F)cc(C#Cc3cccnc3)cc2F)C(=O)C[C@@]1(C)c1cnn(C)c1 [Example 24, (6S)-3-[2,6-Difluoro-4-[2-(3-pyridyl)ethynyl]phenyl]-1,6-dimethyl-6-(1-methylpyrazol-4-yl)hexahydropyrimidine-2,4-dione] | 141 | 39 |
| CN1C(=O)N(c2c(F)cc(C#Cc3cnsc3)cc2F)C(=O)C[C@@]1(C)c1cnn(C)c1 [Example 25, (6S)-3-[2,6-Difluoro-4-(2-isothiazol-4-ylethynyl)phenyl]-1,6-dimethyl-6-(1-methylpyrazol-4-yl)hexahydropyrimidine-2,4-dione] | 149 | 45 |
| CN1C(=O)N(c2c(F)cc(C#Cc3ccccc3)cc2F)C(=O)C[C@@]1(C)c1ccn(C)n1 [Example 26, (6S)-3-[2,6-Difluoro-4-(2-phenylethynyl)phenyl]-1,6-dimethyl-6-(1-methylpyrazol-3-yl)hexahydropyrimidine-2,4-dione] | 146 | 69 |
| CC[C@@]1(c2ccn(C)n2)CC(=O)N(c2c(F)cc(C#Cc3ccccc3)cc2F)C(=O)N1C [Example 27, (6S)-3-[2,6-Difluoro-4-(2-phenylethynyl)phenyl]-6-ethyl-1-methyl-6-(1-methylpyrazol-3-yl)hexahydropyrimidine-2,4-dione] | 143 | 83 |
| CCn1ccc([C@]2(C)CC(=O)N(c3c(F)cc(C#Cc4ccccc4)cc3F)C(=O)N2C)n1 [Example 28, (6S)-3-[2,6-Difluoro-4-(2-phenylethynyl)phenyl]-6-(1-ethylpyrazol-3-yl)-1,6-dimethyl-hexahydropyrimidine-2,4-dione] | 139 | 96 |
| CC(C)n1ccc([C@]2(C)CC(=O)N(c3c(F)cc(C#Cc4ccccc4)cc3F)C(=O)N2C)n1 [Example 29, (6S)-3-[2,6-Difluoro-4-(2-phenylethynyl)phenyl]-6-(1-isopropylpyrazol-3-yl)-1,6-dimethyl-hexahydropyrimidine-2,4-dione] | 146 | 126 |
| COCCn1ccc([C@]2(C)CC(=O)N(c3c(F)cc(C#Cc4ccccc4)cc3F)C(=O)N2C)n1 [Example 30, (6S)-3-[2,6-Difluoro-4-(2-phenylethynyl)phenyl]-6-[1-(2-methoxyethyl)pyrazol-3-yl]-1,6-dimethyl-hexahydropyrimidine-2,4-dione] | 143 | 59 |
| COCCCn1ccc([C@]2(C)CC(=O)N(c3c(F)cc(C#Cc4ccccc4)cc3F)C(=O)N2C)n1 [Example 31, (6S)-3-[2,6-Difluoro-4-(2-phenylethynyl)phenyl]-6-[1-(3-methoxypropyl)pyrazol-3-yl]-1,6-dimethyl-hexahydropyrimidine-2,4-dione] | 117 | 23 |
| CN1C(=O)N(c2c(F)cc(C#Cc3ccccc3)cc2F)C(=O)C[C@@]1(C)c1cnn[nH]1 [Example 32, (6S)-3-[2,6-Difluoro-4-(2-phenylethynyl)phenyl]-1,6-dimethyl-6-(1H-triazol-5-yl)hexahydropyrimidine-2,4-dione] | 114 | 20 |
| CN1C(=O)N(c2c(F)cc(C#Cc3ccccc3)cc2F)C(=O)C[C@@]1(C)c1cnn(C)n1 [Example 33, (6S)-3-[2,6-Difluoro-4-(2-phenylethynyl)phenyl]-1,6-dimethyl-6-(2-methyltriazol-4-yl)hexahydropyrimidine-2,4-dione] | 196 | 59 |
| CN1C(=O)N(c2c(F)cc(C#Cc3ccccc3)cc2F)C(=O)C[C@@]1(C)c1cn(C)nn1 [Example 34, (6S)-3-[2,6-Difluoro-4-(2-phenylethynyl)phenyl]-1,6-dimethyl-6-(1-methyltriazol-4-yl)hexahydropyrimidine-2,4-dione] | 207 | 71 |
| CN1C(=O)N(c2c(F)cc(C#Cc3ccccc3)cc2F)C(=O)C[C@@]1(C)c1cnco1 [Example 35, (6S)-3-[2,6-Difluoro-4-(2-phenylethynyl)phenyl]-1,6-dimethyl-6-oxazol-5-yl-hexahydropyrimidine-2,4-dione] | 195 | 90 |
| CN1C(=O)N(c2c(F)cc(C#Cc3cccnc3)cc2F)C(=O)C[C@@]1(C)c1cn[nH]c1 [Example 36, (6S)-3-[2,6-Difluoro-4-[2-(3-pyridyl)ethynyl]phenyl]-1,6-dimethyl-6-(1H-pyrazol-4-yl)hexahydropyrimidine-2,4-dione] | 164 | 41 |
| CN1C(=O)N(c2ccc(C#Cc3ccccc3)cc2Cl)C(=O)C[C@@]1(C)c1cnn(C)c1 [Example 37, (6S)-3-[2-Chloro-4-(2-phenylethynyl)phenyl]-1,6-dimethyl-6-(1-methylpyrazol-4-yl)hexahydropyrimidine-2,4-dione] | 175 | 112 |
| CN1C(=O)N(c2c(F)cc(C#Cc3ccccc3)cc2F)C(=O)C[C@@]1(C)c1ccsn1 [Example 38, (6S)-3-[2,6-Difluoro-4-(2-phenylethynyl)phenyl]-6-isothiazol-3-yl-1,6-dimethyl-hexahydropyrimidine-2,4-dione] | 152 | 39 |
| Cc1ncc([C@]2(C)CC(=O)N(c3c(F)cc(C#Cc4ccccc4)cc3F)C(=O)N2C)s1 [Example 39, (6S)-3-[2,6-Difluoro-4-(2-phenylethynyl)phenyl]-1,6-dimethyl-6-(2-methylthiazol-5-yl)hexahydropyrimidine-2,4-dione] | 148 | 71 |
| CN1C(=O)N(c2c(F)cc(C#Cc3ccccc3)cc2F)C(=O)C[C@@]1(C)c1ccon1 [Example 40, (6S)-3-[2,6-Difluoro-4-(2-phenylethynyl)phenyl]-6-isoxazol-3-yl-1,6-dimethyl-hexahydropyrimidine-2,4-dione] | 142 | 37 |
| CN1C(=O)N(c2c(F)cc(C#Cc3ccccc3)cc2F)C(=O)C[C@@]1(C)c1ccno1 [Example 41, (6S)-3-[2,6-Difluoro-4-(2-phenylethynyl)phenyl]-6-isoxazol-5-yl-1,6-dimethyl-hexahydropyrimidine-2,4-dione] | 165 | 123 |
| CN1C(=O)N(c2c(F)cc(C#Cc3ccccc3)cc2F)C(=O)C[C@@]1(C)c1cncs1 [Example 42, (6S)-3-[2,6-Difluoro-4-(2-phenylethynyl)phenyl]-1,6-dimethyl-6-thiazol-5-yl-hexahydropyrimidine-2,4-dione] | 135 | 86 |
| CN1C(=O)N(c2c(F)cc(C#Cc3ccccc3)cc2F)C(=O)C[C@@]1(C)c1ccns1 [Example 43, (6S)-3-[2,6-Difluoro-4-(2-phenylethynyl)phenyl]-6-isothiazol-5-yl-1,6-dimethyl-hexahydropyrimidine-2,4-dione] | 151 | 67 |
